From PubChem BioAssay AID1918949 (Molecular Pharmacology Branch, DTP, NCI, 2023)
Where “and” joins values, the source holds several entries; their conditions need not be identical. Identical values can stand only once.

System: K24384-001-R-PDC complex spheroid viability
Assay: Anticancer human tumor K24384-001-R-PDC patient-derived pancreatic adenocarcinoma cell line growth inhibition
Details: for viability, T/C: stronger effect = lower value; active = viability on the fitted dose curve at most 10% of control; inactive = the rest
Outline: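 Multicellular complex spheroids of tumor cells with human endothelial cells (HUVEC) and mesenchymal stem cells; the LSD1 inhibitor iadademstat was combined with standard-of-care or investigational agents. Top concentration at or near clinical Cmax, half-log dilutions; final DMSO ≤0.25%.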

[1] = curve of first compound, second compound 0.1 µM
[2] = curve of first compound, second compound 0.316 µM
[3] = curve of first compound, second compound 1 µM
[4] = curve of first compound, second compound 3.16 µM
[5] = curve of first compound, second compound 10 µM
[6] = second compound 0.1 µM, first compound 0.00949 µM
[7] = second compound 0.1 µM, first compound 0.03 µM
[8] = second compound 0.1 µM, first compound 0.0949 µM
[9] = second compound 0.1 µM, first compound 0.3 µM
[10] = second compound 0.1 µM, first compound 0.949 µM
[11] = second compound 0.1 µM, first compound 3 µM
[12] = second compound 0.316 µM, first compound 0.00949 µM
[13] = second compound 0.316 µM, first compound 0.03 µM
[14] = second compound 0.316 µM, first compound 0.0949 µM
[15] = second compound 0.316 µM, first compound 0.3 µM
[16] = second compound 0.316 µM, first compound 0.949 µM
[17] = second compound 0.316 µM, first compound 3 µM
[18] = second compound 1 µM, first compound 0.00949 µM
[19] = second compound 1 µM, first compound 0.03 µM
[20] = second compound 1 µM, first compound 0.0949 µM
[21] = second compound 1 µM, first compound 0.3 µM
[22] = second compound 1 µM, first compound 0.949 µM
[23] = second compound 1 µM, first compound 3 µM
[24] = second compound 3.16 µM, first compound 0.00949 µM
[25] = second compound 3.16 µM, first compound 0.03 µM
[26] = second compound 3.16 µM, first compound 0.0949 µM
[27] = second compound 3.16 µM, first compound 0.3 µM
[28] = second compound 3.16 µM, first compound 0.949 µM
[29] = second compound 3.16 µM, first compound 3 µM
[30] = second compound 10 µM, first compound 0.00949 µM
[31] = second compound 10 µM, first compound 0.03 µM
[32] = second compound 10 µM, first compound 0.0949 µM
[33] = second compound 10 µM, first compound 0.3 µM
[34] = second compound 10 µM, first compound 0.949 µM
[35] = second compound 10 µM, first compound 3 µM
[36] = second compound 0.1 µM, first compound 0.0316 µM
[37] = second compound 0.1 µM, first compound 0.1 µM
[38] = second compound 0.1 µM, first compound 0.316 µM
[39] = second compound 0.1 µM, first compound 1 µM
[40] = second compound 0.316 µM, first compound 0.0316 µM
[41] = second compound 0.316 µM, first compound 0.1 µM
[42] = second compound 0.316 µM, first compound 0.316 µM
[43] = second compound 0.316 µM, first compound 1 µM
[44] = second compound 1 µM, first compound 0.0316 µM
[45] = second compound 1 µM, first compound 0.1 µM
[46] = second compound 1 µM, first compound 0.316 µM
[47] = second compound 1 µM, first compound 1 µM
[48] = second compound 3.16 µM, first compound 0.0316 µM
[49] = second compound 3.16 µM, first compound 0.1 µM
[50] = second compound 3.16 µM, first compound 0.316 µM
[51] = second compound 3.16 µM, first compound 1 µM
[52] = second compound 10 µM, first compound 0.0316 µM
[53] = second compound 10 µM, first compound 0.1 µM
[54] = second compound 10 µM, first compound 0.316 µM
[55] = second compound 10 µM, first compound 1 µM
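Note: spheroids exposed to agents for seven days before luminescence viability reading.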
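Throughout, for viability, T/C: 100% = DMSO vehicle control viability.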

Nc1ccccc1NC(=O)c1ccc(CNC(=O)OCc2cccnc2)cc1 + NC1CCC(NC2CC2c2ccccc2)CC1
401 nM: IC50 [4]
444 nM: IC50 [2]
inactive: viability, T/C [6] 86.6% | viability, T/C [7] 84.9% | viability, T/C [8] 76.2% | viability, T/C [9] 61.3% | viability, T/C [12] 79.7% | viability, T/C [13] 82.1% | viability, T/C [14] 83.7% | viability, T/C [15] 70.8% | viability, T/C [18] 80.3% | viability, T/C [19] 89% | viability, T/C [20] 92% | viability, T/C [21] 70.6% | viability, T/C [22] 10.4% | viability, T/C [24] 79.9% | viability, T/C [25] 88.2% | viability, T/C [26] 80.2% | viability, T/C [27] 65.2% | viability, T/C [30] 84.1% | viability, T/C [31] 90.7% | viability, T/C [32] 88.7% | viability, T/C [33] 53%
447 nM: IC50 [3]
376 nM: IC50 [1]
active: viability, T/C [10] 5.83% | viability, T/C [11] 0.14% | viability, T/C [16] 9.57% | viability, T/C [17] 0.15% | viability, T/C [23] 0.13% | viability, T/C [28] 5.24% | viability, T/C [29] 0.16% | viability, T/C [34] 1.77% | viability, T/C [35] 0.2%
321 nM: IC50 [5]

NS(=O)(=O)OCC1CC(n2ccc3c(NC4CCc5ccccc54)ncnc32)CC1O (centres undefined) + NC1CC1c1ccc(-c2cccc(O)c2)cc1
439 nM: IC50 [1]
479 nM: IC50 [3]
570 nM: IC50 [2]
inactive: viability, T/C [6] 124% | viability, T/C [7] 155% | viability, T/C [8] 154% | viability, T/C [9] 58.9% | viability, T/C [10] 36.9% | viability, T/C [11] 27% | viability, T/C [12] 128% | viability, T/C [13] 156% | viability, T/C [14] 135% | viability, T/C [15] 71.1% | viability, T/C [16] 37.5% | viability, T/C [17] 25.4% | viability, T/C [18] 114% | viability, T/C [19] 155% | viability, T/C [20] 146% | viability, T/C [21] 62.5% | viability, T/C [22] 36.6% | viability, T/C [23] 26.9% | viability, T/C [24] 110% | viability, T/C [25] 148% | viability, T/C [26] 138% | viability, T/C [27] 55.4% | viability, T/C [28] 43.1% | viability, T/C [29] 30.8% | viability, T/C [30] 155% | viability, T/C [31] 151% | viability, T/C [32] 114% | viability, T/C [33] 61.1% | viability, T/C [34] 40.8% | viability, T/C [35] 23%
512 nM: IC50 [5]
420 nM: IC50 [4]

O=C(C=Cn1cnc(-c2cc(C(F)(F)F)cc(C(F)(F)F)c2)n1)NNc1cnccn1 + NC1CC1c1ccc(-c2cccc(O)c2)cc1
22.4 nM: IC50 [3]
27.8 nM: IC50 [5]
21.2 nM: IC50 [4]
inactive: viability, T/C (second compound 0.1 µM, first compound 0.00316 µM) 68.8% | viability, T/C (second compound 0.1 µM, first compound 0.01 µM) 72.3% | viability, T/C [36] 46.5% | viability, T/C [37] 28.7% | viability, T/C [38] 24.7% | viability, T/C [39] 20.6% | viability, T/C (second compound 0.316 µM, first compound 0.00316 µM) 68.2% | viability, T/C (second compound 0.316 µM, first compound 0.01 µM) 72.8% | viability, T/C [40] 42.7% | viability, T/C [41] 30.2% | viability, T/C [42] 21.6% | viability, T/C [43] 20.3% | viability, T/C (second compound 1 µM, first compound 0.00316 µM) 67.1% | viability, T/C (second compound 1 µM, first compound 0.01 µM) 77% | viability, T/C [44] 40.6% | viability, T/C [45] 27.3% | viability, T/C [46] 22.7% | viability, T/C [47] 19% | viability, T/C (second compound 3.16 µM, first compound 0.00316 µM) 80.9% | viability, T/C (second compound 3.16 µM, first compound 0.01 µM) 65.4% | viability, T/C [48] 42% | viability, T/C [49] 26% | viability, T/C [50] 21.7% | viability, T/C [51] 19.5% | viability, T/C (second compound 10 µM, first compound 0.00316 µM) 80.6% | viability, T/C (second compound 10 µM, first compound 0.01 µM) 81.9% | viability, T/C [52] 46% | viability, T/C [53] 30.7% | viability, T/C [54] 26.7% | viability, T/C [55] 24.5%
27.7 nM: IC50 [1]
23.7 nM: IC50 [2]

COc1cc(C2c3cc4c(cc3C(OC3OC5COC(C)OC5C(O)C3O)C3COC(=O)C23)OCO4)cc(OC)c1O (centres undefined) + NC1CCC(NC2CC2c2ccccc2)CC1
inactive: viability, T/C [6] 91.2% | viability, T/C [7] 92.8% | viability, T/C [8] 86.4% | viability, T/C [9] 65.3% | viability, T/C [10] 55.9% | viability, T/C [11] 42.8% | viability, T/C [12] 107% | viability, T/C [13] 83.3% | viability, T/C [14] 79.7% | viability, T/C [15] 75.7% | viability, T/C [16] 57.2% | viability, T/C [17] 43.2% | viability, T/C [18] 98.4% | viability, T/C [19] 97.2% | viability, T/C [20] 69.3% | viability, T/C [21] 72.6% | viability, T/C [22] 59.6% | viability, T/C [23] 47.8% | viability, T/C [24] 87.8% | viability, T/C [25] 102% | viability, T/C [26] 67.9% | viability, T/C [27] 65% | viability, T/C [28] 57.9% | viability, T/C [29] 54% | viability, T/C [30] 88.2% | viability, T/C [31] 98.4% | viability, T/C [32] 90.1% | viability, T/C [33] 73.2% | viability, T/C [34] 66% | viability, T/C [35] 47.4%
2650 nM: IC50 [3]
2620 nM: IC50 [5]
1860 nM: IC50 [2]
1330 nM: IC50 [1]
> 3000 nM: IC50 [4]

CC1COCCN1c1cc(C2(S(C)(=N)=O)CC2)nc(-c2ccnc3[nH]ccc23)n1 (centres undefined) + NC1CCC(NC2CC2c2ccccc2)CC1
1830 nM: IC50 [4]
1630 nM: IC50 [2]
2320 nM: IC50 [3]
1710 nM: IC50 [5]
inactive: viability, T/C [36] 82.9% | viability, T/C [37] 79.5% | viability, T/C [38] 91.1% | viability, T/C [39] 71.5% | viability, T/C (second compound 0.1 µM, first compound 3.16 µM) 43.2% | viability, T/C (second compound 0.1 µM, first compound 10 µM) 44.5% | viability, T/C [40] 95.2% | viability, T/C [41] 90.1% | viability, T/C [42] 107% | viability, T/C [43] 57.5% | viability, T/C (second compound 0.316 µM, first compound 3.16 µM) 45.5% | viability, T/C (second compound 0.316 µM, first compound 10 µM) 34.3% | viability, T/C [44] 84.4% | viability, T/C [45] 88% | viability, T/C [46] 84.3% | viability, T/C [47] 67% | viability, T/C (second compound 1 µM, first compound 3.16 µM) 44% | viability, T/C (second compound 1 µM, first compound 10 µM) 38.9% | viability, T/C [48] 80.6% | viability, T/C [49] 97.6% | viability, T/C [50] 82.9% | viability, T/C [51] 60.4% | viability, T/C (second compound 3.16 µM, first compound 3.16 µM) 41.8% | viability, T/C (second compound 3.16 µM, first compound 10 µM) 34.4% | viability, T/C [52] 79.6% | viability, T/C [53] 74% | viability, T/C [54] 76.8% | viability, T/C [55] 60.4% | viability, T/C (second compound 10 µM, first compound 3.16 µM) 36.9% | viability, T/C (second compound 10 µM, first compound 10 µM) 39%
2450 nM: IC50 [1]

NC1CC1c1ccc(-c2cccc(O)c2)cc1 (centres undefined)
inactive: viability, T/C (compound 0.1 µM) 108%
> 10000 nM: IC50 (compound alone, run of 02/21/2022)

Nc1ncn(C2CC(O)C(CO)S2)c(=O)n1 (centres undefined)
> 300 nM: IC50 (curve of compound)
inactive: viability, T/C (compound 0.000949 µM) 93.1% and 95.2% | viability, T/C (compound 0.003 µM) 96.3% and 88.6% | viability, T/C (compound 0.00949 µM) 96.3% and 85.4% | viability, T/C (compound 0.03 µM) 83.3% and 89.3% | viability, T/C (compound 0.0949 µM) 81.3% and 69.1% | viability, T/C (compound 0.3 µM) 55.9% and 56.2%
